Key:
hippocampal slices = assay: TUNEL and Nissl staining of hippocampal slices; type: cell-based, mouse; conditions: 25 μM or 50 μM Aβ
Experimental: Hippocampal slice cryosections from 3 animals per treatment were stained with terminal deoxynucleotidyl transferase-mediated, dUTP nick end labeling (TUNEL). Cells with DNA fragmentation were determined by the terminal deoxynucleotidyl transferase incorporation of fluorescein isothiocyanate (FITC)-12-dUTP into DNA (In Situ Cell Death Detection kit, Roche Biochem, Indianapolis, Ind.). Other sections were stained with cresyl violet acetate, and the neurons with healthy nuclei as well as the neurons with condensed and clumped chromatin were counted within the neuronal fields.
β-amyloid1-42 and reverse Aβ (Aβ42-1) were obtained from BACHEM (Torrance, Calif.). These polypeptides were dissolved in 0.1% NH3OH at 222 μM. For treatments, Aβ was aggregated at 50 μM in Neurobasal media with B-27 supplement and 1 mM glutamine at 37° C. for 24 hours. Then, the slice culture media was removed, and the slices were treated with 1 mL of 25 μM or 50 μM Aβ, reverse Aβ, or vehicle for 24 hours. Human TTR (Calbiochem) or IGF-2 (Peprotech, Rocky Hill, N.J.) was added to slices together with the Aβ treatment at final concentrations of 3 μM (TTR) or 500 nM (IGF-2). sAPPα was prepared as described previously (Mattson et al., Neuron, 10:243-254 (1993)).
Unless otherwise stated, all sAPPα treatments were performed at 1 nM 48 hours prior to the addition of Aβ. […]

tau = assay: Tau phosphorylation (AT8, phospho-tau(Thr231) immunohistochemistry, immunoblot, electron microscopy) in hippocampal slices; type: cell-based, mouse
Experimental: Mice were killed with CO2 and immediately perfused through the heart with phosphate buffered saline (PBS). The right hemispheres were fixed in 4% paraformaldehyde (PFA) overnight, sunk in 30% sucrose, and frozen in OCT embedding medium. Hippocampal slices were fixed in 4% PFA for 20 minutes, incubated in 30% sucrose overnight, and frozen in OCT embedding medium. Frozen sections with a width of 10 μm were taken through the hippocampus. Post-mortem human tissue was formalin fixed, cut at 10 μm, and boiled for 10 minutes in a 10 mM Tris buffer, […] for antigen retrieval. IGF-2 and TTR were detected with a 1:200 dilution of the polyclonal antibody against IGF-2 (F-20) or TTR (C-20; Santa Cruz Biotechnology, Santa Cruz, Calif.). Phospho-BAD (Ser112; Cell Signaling, Beverly, Mass.), and BAD (Stressgen, Victoria, British Columbia) were detected with a 1:250 dilution of the respective polyclonal antibody. Phosphorylated tau was detected with the monoclonal AT8 antibody (1:200; Research Diagnostics, Flanders, N.J.) and anti-phospho-tau(Thr231) (1:500; Calbiochem, San Diego, Calif.). As a control pre-immune rabbit or mouse IgG (Vector Laboratories, Burlingame, Calif.) or goat IgG (Santa Cruz) was used in place of the primary antibody. A biotinylated anti-goat IgG, anti-rabbit IgG, or anti-mouse IgG was used as the secondary antibody. Finally, the Vectastain Elite ABC kit (Vector) and tyramide conjugated to either Alexa Fluor 488 or 568 (Molecular Probes, Eugene, Oreg.) were used to visualize the antibody staining. Anti-NeuN (1:250; Chemicon International, Temecula, Calif.) and 4G8 (1:250; Signet, Dedham, Mass.) together with an anti-mouse IgG secondary antibody conjugated to Alexa Fluor 488 were used to detect NeuN and Aβ. The DNA binding dyes ToPro3 (Molecular Probes) or Hoechst 33258 (Sigma, St. Louis, Mo.) were used to visualize nuclei. Sections were imaged using either the Bio-Rad Laser Scanning Confocal system or epifluorescence (Zeiss, Thornwood, N.Y.). Representative figures were obtained from 3 APPSw mice and 3 non-transgenic controls, 3 animals per treatment for hippocampal slices, or from 4 goat IgG and 4 anti-TTR antibody infused mice.
Following treatment with 50 μM Aβ or reverse Aβ for 24 hours, hippocampal slice cultures were fixed with a mixture of 2% PFA/2.5% glutaraldehyde in 0.1 M Sorensons phosphate buffer (pH 7.4) for 1 hour and then post fixed for 1 hour in 2% osmium tetroxide in the same buffer. The slices were then dehydrated in an ethanol series and embedded in Epon epoxy resin. Ultrathin sections were cut on a Reichert-Jung microtome, placed on copper grids, and stained with routine concentrations of uranyl acetate and lead citrate. Micrographs were taken with a Philips CM120 electron microscope. […]

Substance: β-amyloid1-42 [Aβ]
- DNA strand breaks as indicated by TUNEL (hippocampal slices): resulted in DNA strand breaks
- Percent of neurons with chromatin condensation (hippocampal slices; FIG. 1): significant increase
- AT8 (phosphorylated tau) staining of neurons in hippocampal neuronal fields (tau; 25 μM or 50 μM): many neurons within the hippocampal neuronal fields were AT8 positive
- Phospho-tau(Thr-231) staining of neurons (tau; 25 μM or 50 μM Aβ): several neurons stained positively for phospho-tau(Thr-231)
- Levels of phosphorylated tau, immunoblot for phospho-tau(Thr-231) (tau; 50 μM): increased the levels of phosphorylated tau
- Filaments within the cytoplasm of neurons, electron microscopy (tau; 50 μM Aβ, 24 hours): presence of long, straight filaments

Reference: patent publication US20090176714A1, “METHOD OF REDUCING THE EFFECTS OF ABeta AND COMPOSITIONS THEREFORE” (priority 2004, published 2009)
